In ChEMBL document CHEMBL4382200, “Discovery of Novel 7-Aryl 7-Deazapurine 3'-Deoxy-ribofuranosyl Nucleosides with Potent Activity against Trypanosoma cruzi” (J Med Chem, 2018):
One block for each molecule: values may come before it.

Key:
[1] = Therapeutic index, ratio EC50 for human MRC5 SV2 cells to EC50 for Trypanosoma cruzi Tulahuen CL2 intracellular amastigotes; type: toxicity, cell-based; settings: read-out: Ratio EC50
Trypanosoma cruzi = assay: Antiparasitic activity against Trypanosoma cruzi Tulahuen CL2 intracellular amastigotes expressing beta-galactosidase infected in human MRC5 SV2 cells after 7 days by chlorophenol red beta-D-galactopyranoside-based spectrophotometric analysis; type: functional, organism-based; settings: Tulahuen CL2, MRC-5 SV2, 168 h, read-out: EC50
[2] = Cytotoxicity against human MRC5 SV2 cells assessed as reduction in cell viability after 3 days resazurin-based fluorimetric assay; settings: MRC-5 SV2, 72 h
[3] = test system: UDP-glucuronosyltransferases (UGTs); assay: Drug metabolism in human liver microsome S9 fraction assessed as UGT-mediated metabolism by measuring compound remaining at 5 uM pretreated with UDPGA and measured after 15 mins by UPLC-MS/MS analysis; type: ADME, microsomes; settings: microsomes, 0.25 h, 5 µM
[4] = Drug metabolism in dog liver microsome S9 fraction assessed as UGT-mediated metabolism by measuring compound remaining at 5 uM pretreated with UDPGA and measured after 60 mins by UPLC-MS/MS analysis; type: ADME, microsomes, Canis lupus familiaris; settings: microsomes, 1 h, 5 µM
Cytochrome P450 [5] = assay: Drug metabolism in human liver microsome S9 fraction assessed as CYP450-mediated metabolism by measuring compound remaining at 5 uM pretreated with NADPH and measured after 60 mins by UPLC-MS/MS analysis; type: ADME, microsomes; settings: microsomes, 1 h, 5 µM
[6] = Drug metabolism in rat liver microsome S9 fraction assessed as CYP450-mediated metabolism by measuring compound remaining at 5 uM pretreated with NADPH and measured after 15 mins by UPLC-MS/MS analysis; type: ADME, microsomes; settings: microsomes, 0.25 h, 5 µM
[7] = Drug metabolism in mouse liver microsome S9 fraction assessed as CYP450-mediated metabolism by measuring compound remaining at 5 uM pretreated with NADPH and measured after 60 mins by UPLC-MS/MS analysis; type: ADME, microsomes; settings: microsomes, 1 h, 5 µM
[8] = test system: UDP-glucuronosyltransferases (UGTs); assay: Drug metabolism in human liver microsome S9 fraction assessed as UGT-mediated metabolism by measuring compound remaining at 5 uM pretreated with UDPGA and measured after 60 mins by UPLC-MS/MS analysis; type: ADME, microsomes; settings: microsomes, 1 h, 5 µM
[9] = Drug metabolism in rat liver microsome S9 fraction assessed as CYP450-mediated metabolism by measuring compound remaining at 5 uM pretreated with NADPH and measured after 30 mins by UPLC-MS/MS analysis; type: ADME, microsomes; settings: microsomes, 0.5 h, 5 µM
[10] = Drug metabolism in mouse liver microsome S9 fraction assessed as UGT-mediated metabolism by measuring compound remaining at 5 uM pretreated with UDPGA and measured after 30 mins by UPLC-MS/MS analysis; type: ADME, microsomes; settings: microsomes, 0.5 h, 5 µM
Cytochrome P450 [11] = assay: Drug metabolism in human liver microsome S9 fraction assessed as CYP450-mediated metabolism by measuring compound remaining at 5 uM pretreated with NADPH and measured after 15 mins by UPLC-MS/MS analysis; type: ADME, microsomes; settings: microsomes, 0.25 h, 5 µM
[12] = Drug metabolism in rat liver microsome S9 fraction assessed as UGT-mediated metabolism by measuring compound remaining at 5 uM pretreated with UDPGA and measured after 60 mins by UPLC-MS/MS analysis; type: ADME, microsomes; settings: microsomes, 1 h, 5 µM
[13] = Drug metabolism in mouse liver microsome S9 fraction assessed as UGT-mediated metabolism by measuring compound remaining at 5 uM pretreated with UDPGA and measured after 60 mins by UPLC-MS/MS analysis; type: ADME, microsomes; settings: microsomes, 1 h, 5 µM
[14] = Drug metabolism in rat liver microsome S9 fraction assessed as UGT-mediated metabolism by measuring compound remaining at 5 uM pretreated with UDPGA and measured after 30 mins by UPLC-MS/MS analysis; type: ADME, microsomes; settings: microsomes, 0.5 h, 5 µM
[15] = Drug metabolism in mouse liver microsome S9 fraction assessed as UGT-mediated metabolism by measuring compound remaining at 5 uM pretreated with UDPGA and measured after 15 mins by UPLC-MS/MS analysis; type: ADME, microsomes; settings: microsomes, 0.25 h, 5 µM
[16] = Drug metabolism in dog liver microsome S9 fraction assessed as CYP450-mediated metabolism by measuring compound remaining at 5 uM pretreated with NADPH and measured after 60 mins by UPLC-MS/MS analysis; type: ADME, microsomes, Canis lupus familiaris; settings: microsomes, 1 h, 5 µM
[17] = Drug metabolism in dog liver microsome S9 fraction assessed as CYP450-mediated metabolism by measuring compound remaining at 5 uM pretreated with NADPH and measured after 15 mins by UPLC-MS/MS analysis; type: ADME, microsomes, Canis lupus familiaris; settings: microsomes, 0.25 h, 5 µM
Cytochrome P450 [18] = assay: Drug metabolism in human liver microsome S9 fraction assessed as CYP450-mediated metabolism by measuring compound remaining at 5 uM pretreated with NADPH and measured after 30 mins by UPLC-MS/MS analysis; type: ADME, microsomes; settings: microsomes, 0.5 h, 5 µM
[19] = Drug metabolism in dog liver microsome S9 fraction assessed as CYP450-mediated metabolism by measuring compound remaining at 5 uM pretreated with NADPH and measured after 30 mins by UPLC-MS/MS analysis; type: ADME, microsomes, Canis lupus familiaris; settings: microsomes, 0.5 h, 5 µM
[20] = Drug metabolism in mouse liver microsome S9 fraction assessed as CYP450-mediated metabolism by measuring compound remaining at 5 uM pretreated with NADPH and measured after 30 mins by UPLC-MS/MS analysis; type: ADME, microsomes; settings: microsomes, 0.5 h, 5 µM
[21] = Drug metabolism in mouse liver microsome S9 fraction assessed as CYP450-mediated metabolism by measuring compound remaining at 5 uM pretreated with NADPH and measured after 15 mins by UPLC-MS/MS analysis; type: ADME, microsomes; settings: microsomes, 0.25 h, 5 µM
[22] = Drug metabolism in rat liver microsome S9 fraction assessed as UGT-mediated metabolism by measuring compound remaining at 5 uM pretreated with UDPGA and measured after 15 mins by UPLC-MS/MS analysis; type: ADME, microsomes; settings: microsomes, 0.25 h, 5 µM
[23] = Drug metabolism in dog liver microsome S9 fraction assessed as UGT-mediated metabolism by measuring compound remaining at 5 uM pretreated with UDPGA and measured after 15 mins by UPLC-MS/MS analysis; type: ADME, microsomes, Canis lupus familiaris; settings: microsomes, 0.25 h, 5 µM
[24] = test system: UDP-glucuronosyltransferases (UGTs); assay: Drug metabolism in human liver microsome S9 fraction assessed as UGT-mediated metabolism by measuring compound remaining at 5 uM pretreated with UDPGA and measured after 30 mins by UPLC-MS/MS analysis; type: ADME, microsomes; settings: microsomes, 0.5 h, 5 µM
[25] = Drug metabolism in rat liver microsome S9 fraction assessed as CYP450-mediated metabolism by measuring compound remaining at 5 uM pretreated with NADPH and measured after 60 mins by UPLC-MS/MS analysis; type: ADME, microsomes; settings: microsomes, 1 h, 5 µM
[26] = Drug metabolism in dog liver microsome S9 fraction assessed as UGT-mediated metabolism by measuring compound remaining at 5 uM pretreated with UDPGA and measured after 30 mins by UPLC-MS/MS analysis; type: ADME, microsomes, Canis lupus familiaris; settings: microsomes, 0.5 h, 5 µM

SMILES: Nc1ncnc2c1c(-c1ccc3ccccc3c1)cn2[C@@H]1O[C@H](CO)C[C@H]1O
selectivity ratio [1]: 7
EC50 (Trypanosoma cruzi): 0.72 µM
EC50 [2]: 5 µM

SMILES: Nc1ncnc2c1c(-c1cccc(Cl)c1)cn2[C@@H]1O[C@H](CO)C[C@H]1O
selectivity ratio [1]: 37
EC50 (Trypanosoma cruzi): 0.97 µM
EC50 [2]: 36.1 µM

SMILES: Nc1ncnc2c1c(-c1ccc(F)c(F)c1)cn2[C@@H]1O[C@H](CO)C[C@H]1O
selectivity ratio [1]: > 190
EC50 (Trypanosoma cruzi): 0.33 µM
EC50 [2]: > 64 µM

SMILES: Nc1ncnc2c1c(C1=CCCCC1)cn2[C@@H]1O[C@H](CO)C[C@H]1O
selectivity ratio [1]: > 2
EC50 (Trypanosoma cruzi): 31.8 µM
EC50 [2]: > 64 µM

SMILES: Nc1ncnc2c1c(-c1ccc(Cl)c(F)c1)cn2[C@@H]1O[C@H](CO)C[C@H]1O
selectivity ratio [1]: 260
EC50 (Trypanosoma cruzi): 0.071 µM
EC50 [2]: 18.6 µM

Stability [3]: Unstable
Stability [4]: Unstable
Stability (Cytochrome P450 [5]): Unstable
Stability [6]: Unstable
Stability [7]: Unstable
Stability [8]: Unstable
Stability [9]: Unstable
Stability [10]: Unstable
Stability (Cytochrome P450 [11]): Unstable
Stability [12]: Unstable
Stability [13]: Unstable
Stability [14]: Unstable
Stability [15]: Unstable
Stability [16]: Unstable
Stability [17]: Unstable
Stability (Cytochrome P450 [18]): Unstable
Stability [19]: Unstable
Stability [20]: Unstable
Stability [21]: Unstable
Stability [22]: Unstable
Stability [23]: Unstable
Stability [24]: Unstable
Stability [25]: Unstable
Stability [26]: Unstable
SMILES: O=C(O)Cc1ccccc1Nc1c(Cl)cccc1Cl [DICLOFENAC]

SMILES: Nc1ncnc2c1c(C1CCCCC1)cn2[C@@H]1O[C@H](CO)C[C@H]1O
selectivity ratio [1]: > 3
EC50 (Trypanosoma cruzi): 20.9 µM
EC50 [2]: > 64 µM

SMILES: Cc1ccc(-c2cn([C@@H]3O[C@H](CO)C[C@H]3O)c3ncnc(N)c23)cc1
selectivity ratio [1]: 46
EC50 (Trypanosoma cruzi): 0.46 µM
EC50 [2]: 21 µM

SMILES: Nc1ncnc2c1c(-c1cccc(C(F)(F)F)c1)cn2[C@@H]1O[C@H](CO)C[C@H]1O
selectivity ratio [1]: 4.4
EC50 (Trypanosoma cruzi): 11.2 µM
EC50 [2]: 49.6 µM

SMILES: Nc1ncnc2c1c(-c1ccccc1)cn2[C@@H]1O[C@H](CO)C[C@H]1O
selectivity ratio [1]: 24
EC50 (Trypanosoma cruzi): 2.57 µM
EC50 [2]: 61.8 µM

SMILES: Nc1ncnc2c1ncn2[C@@H]1O[C@H](CO)C[C@H]1O [CORDYCEPIN]
selectivity ratio [1]: > 25
EC50 (Trypanosoma cruzi): 2.51 µM
EC50 [2]: > 64 µM

SMILES: Nc1ncnc2c1c(-c1ccc(OC(F)(F)F)cc1)cn2[C@@H]1O[C@H](CO)C[C@H]1O
selectivity ratio [1]: 29
EC50 (Trypanosoma cruzi): 1.39 µM
EC50 [2]: 40.4 µM

SMILES: Nc1ncnc2c1c(-c1ccc(Cl)c(Cl)c1)cn2[C@@H]1O[C@H](CO)C[C@H]1O
selectivity ratio [1]: 230
EC50 (Trypanosoma cruzi): 0.059 µM
EC50 [2]: 13.6 µM

SMILES: Nc1ncnc2c1c(-c1ccc(C(F)(F)F)cc1)cn2[C@@H]1O[C@H](CO)C[C@H]1O
selectivity ratio [1]: 76
EC50 (Trypanosoma cruzi): 0.53 µM
EC50 [2]: 40 µM

SMILES: Cc1ccc(-c2cn([C@@H]3O[C@H](CO)C[C@H]3O)c3ncnc(N)c23)cc1Cl
selectivity ratio [1]: 66
EC50 (Trypanosoma cruzi): 0.27 µM
EC50 [2]: 17.8 µM
